Test results from ChEMBL document CHEMBL1140457, “(1R,2S)-4-(2-cyano-cyclohexyl-oxy)-2-trifluoromethyl-benzonitrile, a potent androgen receptor antagonist for stimulating hair growth and reducing sebum production” (Bioorg Med Chem Lett, 2007).
Calls of active or inactive are those of the source. The calls are words filed in the database; no cut-off is given here.

Tests used:
Androgen receptor [1] = biological target: T1, Androgen receptor (Homo sapiens, UniProt P10275); assay: Displacement of [3H]DHT from androgen receptor expressed in Sf9 cells
T1 sequence (P10275 whole entry): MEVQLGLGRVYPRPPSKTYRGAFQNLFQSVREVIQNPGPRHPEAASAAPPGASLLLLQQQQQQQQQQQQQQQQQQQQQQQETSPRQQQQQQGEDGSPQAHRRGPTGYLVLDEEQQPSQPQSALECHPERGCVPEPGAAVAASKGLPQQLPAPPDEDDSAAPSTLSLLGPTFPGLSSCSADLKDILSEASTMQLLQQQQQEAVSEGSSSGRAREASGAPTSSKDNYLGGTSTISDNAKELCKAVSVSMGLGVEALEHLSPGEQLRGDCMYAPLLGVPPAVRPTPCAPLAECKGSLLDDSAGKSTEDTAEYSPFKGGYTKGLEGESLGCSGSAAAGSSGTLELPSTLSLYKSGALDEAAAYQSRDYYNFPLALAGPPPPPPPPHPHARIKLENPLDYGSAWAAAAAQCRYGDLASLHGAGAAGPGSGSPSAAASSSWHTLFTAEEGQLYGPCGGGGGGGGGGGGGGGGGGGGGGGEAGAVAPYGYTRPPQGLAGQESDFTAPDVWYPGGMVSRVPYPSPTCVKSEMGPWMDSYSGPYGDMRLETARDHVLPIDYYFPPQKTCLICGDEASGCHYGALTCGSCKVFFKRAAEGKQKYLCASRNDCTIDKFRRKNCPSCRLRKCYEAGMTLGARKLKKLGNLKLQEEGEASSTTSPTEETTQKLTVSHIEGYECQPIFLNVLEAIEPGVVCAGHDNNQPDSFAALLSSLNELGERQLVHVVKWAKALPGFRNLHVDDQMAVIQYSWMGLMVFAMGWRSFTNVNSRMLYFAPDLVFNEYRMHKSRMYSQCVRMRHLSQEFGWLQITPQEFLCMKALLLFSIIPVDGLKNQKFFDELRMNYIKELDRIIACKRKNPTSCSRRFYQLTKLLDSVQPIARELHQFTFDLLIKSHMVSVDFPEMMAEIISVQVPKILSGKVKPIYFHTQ

Androgen receptor [2] = biological target: T1, Androgen receptor; assay: Antagonist activity at androgen receptor expressed in MDA-MB-453 cells assessed as inhibition of dihydrotestosterone-induced response in reporter gene assay; format: functional, cell-based
Syrian golden hamster [3] = assay: Reduction of sebum production in topically dosed Syrian hamster ear model administered at 0.5% concentration twice daily for 2 weeks; format: functional, Mesocricetus auratus; set-up: scale not given: the % may be the effect or the level left
Syrian golden hamster [4] = assay: Reduction of sebum production in topically dosed Syrian hamster ear model administered twice daily for 2 weeks; format: functional, Mesocricetus auratus
[5] = Half life in Sprague-Dawley rat at 1 mg/kg, iv; format: ADME, organism-based; set-up: dose 1 mg/kg, route intravenous; conditions: in vivo
[6] = Plasma clearance in Sprague-Dawley rat at 1 mg/kg, iv; format: ADME, organism-based; set-up: dose 1 mg/kg, route intravenous
Syrian golden hamster [7] = assay: Reduction of sebaceous gland size in topically dosed Syrian hamster ear model administered twice daily for 2 weeks; format: functional, organism-based; conditions: Mesocricetus auratus
[8] = Metabolic stability in human hepatocytes assessed as hepatic extraction ratio at 1 uM; format: ADME, cell-based, Hepatocyte; conditions: read-out: Stability
[9] = Volume of distribution at steady state in Sprague-Dawley rat at 1 mg/kg, iv; format: ADME, organism-based; set-up: dose 1 mg/kg, route intravenous; conditions: in vivo, read-out: Vdss
Mus musculus = assay: Stimulation of hair growth in topically dosed C3H/HeN mouse model administered twice daily for 4 weeks; format: functional, organism-based
[10] = Metabolic stability in Beagle dog hepatocytes assessed as hepatic extraction ratio at 1 uM; format: ADME, cell-based, Canis lupus familiaris, Hepatocyte; conditions: read-out: Stability
[11] = Metabolic stability in Sprague-Dawley rat hepatocytes assessed as hepatic extraction ratio at 1 uM; format: ADME, cell-based, Hepatocyte; conditions: read-out: Stability

N#Cc1ccc(OC2CCCCC2C#N)cc1C(F)(F)F (racemic)
IC50 (Androgen receptor [1]): 58 nM | IC50 (Androgen receptor [2]): 13 nM

CC1(C)C(=O)N(c2ccc(C#N)c(C(F)(F)F)c2)C(=O)N1CCCCO [RU-58841]
Activity (Syrian golden hamster [3]): 91%

N#Cc1ccc(O[C@@H]2CCCC[C@H]2C#N)cc1C(F)(F)F
ED50 (Syrian golden hamster [4]): 0.1% | half-life [5]: 1.6 h | clearance [6]: 71 mL/min/kg | Activity (Syrian golden hamster [7]): Active | IC50 (Androgen receptor [1]): 60 nM | hepatic extraction ratio at 1 µM [8]: 0.57 | Vd [9]: 6.5 L/kg | Activity (Mus musculus): Dose-dependent effect | hepatic extraction ratio at 1 µM [10]: 0.92 | hepatic extraction ratio at 1 µM [11]: 0.88 | IC50 (Androgen receptor [2]): 12 nM

N#Cc1ccc(O[C@H]2CCCC[C@@H]2C#N)cc1C(F)(F)F
IC50 (Androgen receptor [1]): 43 nM | IC50 (Androgen receptor [2]): 196 nM
